Measurements as given in patent US20250177392A1, “BROAD SPECTRUM INHIBITORS OF CYTOMEGALOVIRUS” (MICROBIOTIX, INC., priority 2022, published 2025).

Tested on: MCMV Smith
Experiment: Herpes virus panel neutralization, MCMV
Format: cell-based, Murine cytomegalovirus
Method: To determine the specificity of MBX-4992, additional neutralization experiments were conducted using a panel of herpes viruses performed in the presence of MBX-4992. […] Collectively, the antiviral activity of MBX-4992 is equivalent to that of GCV indicating specific inhibition of CMV replication.

`Cc1nc(Nc2ccc(NC(=O)c3ccco3)cc2)cc(N2CCCC2)n1` [MBX-4992] was tested, and the SI (MCMV Smith) was >33 and the IC50 (Murid betaherpesvirus 1) was 4.5 µM.
